Patent US20030100565A1, “Method for the treatment or prevention of atopic dermatitis” (Boehringer Ingelheim International GmbH, priority 2001, published 2003)

Columns and labels:
SP-induced scratching [1] = assay: Effect on SP-induced scratching in mice; type: in vivo, ddY mice; settings: for effect on SP-induced scratching compared with Compounds Ia and Ib: mice, dose not stated; for scratching behavior count induced by SP: 1 h before intradermal SP, FIG. 1, control 50.5±12.1, mean±S.E.; for scratching behaviour count induced by SP: another experiment
Protocol: Assay: Effect of NK1 Receptor Antagonist Ia, on SP-Induced Scratching in Mice Male ddY mice (Japan SLC, Ltd., Shizuoka, Japan) of 8-9 weeks of ages weighing 34-43 g, were used in the experiment. Mice were fasted 4 hours prior to the initiation of the experiment with free access to water. Epinastine and NK1 receptor antagonist of formulae Ia, Ib, Ic and Id (Compounds Ia to Id) were provided by Boehringer Ingelheim Pharma K.G. (Germany). SP (lot. No. 80K5 104) was supplied by Sigma Co., Ltd. (USA) and dissolved in physiological saline. Before recording of behavior, the mice (two animals per one cage) were put into an acryl cage for at least 5 hours for acclimation. […] Playing back of video served for counting scratching behavior. […] Data were analyzed by One-way ANOVA and post hoc Tukey test; p<0.05 value was considered. Data presented as the mean±S.E.

SP-induced scratching [2] = assay: Effect on SP-induced scratching in guinea pigs; type: in vivo, Hartley guinea pigs; settings: for effect on SP-induced scratching compared with Compounds Ia and Id: dose not stated
Protocol: Assay: Effect of NK1 Receptor Antagonist Ia, on SP-Induced Scratching in Guinea Pigs
Male Hartley guinea pigs (Japan SLC, Ltd., Shizuoka, Japan) of 4-5 weeks old weighing 275-395 g were used in the experiment. The guinea pigs were fasted more than 12 hours prior to the initiation of the experiment with free access to water. 6-8 guinea pigs were used for each group.
Prior to the recording of behaviour, the guinea pigs (one animal per cage) were kept in a cage for observation for at least 1 hour for acclimation. Compound Ia was dosed at 1 hour prior to the administration of substance P. […] SP (150 μg/body) was injected intradermally in volume of 20 μL into the rostral back (around interscapular level). Immediately after the administration of SP, the behaviour of the guinea pigs were recorded using VHS video camera for 1 hour with any persons kept out the observation room (sound proof condition). Playing back of video was served for counting the number of scratching behaviour.
The total scratching counts during 60 min of observation were analysed by one-way ANOVA and Dunnett's multiple comparison test between vehicle treatment and drug treatments; p<0.05 value was considered as significant. Scratching counts were expressed as the mean+S.E.

SP-induced scratching [3] = settings: mice; reported by Inagaki et al., Eur J Pharmacol 2000; cited from earlier work

With `CN(CCc1cc(C(F)(F)F)cc(C(F)(F)F)c1)C(=O)[C@H](c1ccccc1)N1CCC(NC(CO)CO)CC1` [Compound Id, (S)-N-[2-(3,5-Bis-trifluormethyl-phenyl)-ethyl]-2-[4-(2-hydroxy-1-hydroxymethyl-ethylamino)-piperidin-1-yl]-N-methyl-2-phenylacetamid] the “effect on SP-induced scratching compared with Compounds Ia and Ib” value (SP-induced scratching [1]) was “Comparable results” and the “inhibition of scratching behaviour induced by substance P” value (SP-induced scratching [2]; guinea pigs, 0.3, 1.0 and 3.0 mg/kg p.o., FIG. 6) was “inhibited”.

In the case of `NC1=NCC2c3ccccc3Cc3ccccc3N12` (stereo not shown) [epinastine, reference compound], the “scratching behavior count induced by SP” value (SP-induced scratching [1]; 10 mg/kg p.o.) is listed as 20.0±8.4 beats/60 min, the “scratching behaviour count induced by SP” value (SP-induced scratching [1]; 10 mg/kg p.o., FIG. 2b, control 51.6±7.8/60 min) is listed as 33.7±4.0 beats/60 min and the “effect on SP-induced scratching” value (SP-induced scratching [3]) is listed as “significant effect”.

For `CN(CCc1cc(C(F)(F)F)cc(C(F)(F)F)c1)C(=O)[C@H](c1ccccc1)N1CCN(CC2CC2)CC1` [Compound Ia], the “scratching behavior count induced by SP” value (SP-induced scratching [1]; 30 mg/kg p.o.) was 21.1±6.1 beats/60 min, the “scratching behaviour count induced by SP” value (SP-induced scratching [1]; 30 mg/kg p.o., FIG. 2a, control 59.0±6.0/60 min) was 29.9±6.6 beats/60 min and the “dose dependency of effect on SP-induced scratching behavior” value (SP-induced scratching [1]; 10 and 30 mg/kg p.o., FIG. 3, vehicle 51.0±12.9 beats/60 min) was “inhibited the scratching induced by SP, and the effect was dose dependent”. The “overall effect on scratching behaviour (conclusion)” value (SP-induced scratching [1]; ddY mice, effect similar to epinastine) was “apparent inhibitory effect”, the “inhibition of scratching behaviour induced by SP” value (SP-induced scratching [2]; guinea pigs, higher doses of 0.1 mg/kg p.o., FIG. 5.1) was “significant inhibition” and the “inhibition of scratching behaviour induced by SP” value (SP-induced scratching [2]; guinea pigs, lower doses of 0.03 mg/kg p.o., FIG. 5.2) was “tendency to inhibit”. For the same compound, the “inhibition of scratching behaviour induced by SP, dose dependency” value (SP-induced scratching [2]; guinea pigs, p.o., 1 h before SP, FIG. 5) was “inhibited the scratching behaviour induced by SP dose dependently”.

In the case of “(S)-N-[2-(3,5-Bis-trifluormethyl-phenyl)-ethyl]-2-{4-[cyclopropylmethyl-(3-hydroxy-propyl) -amino]-piperidin-1-yl}-N-methyl-2-phenyl-acetamid [Compound Ib]”, the “inhibition of scratching behaviour induced by substance P” value (SP-induced scratching [1]; 30 mg/kg p.o., FIG. 4) is reported as “inhibited” and the “effect on SP-induced scratching compared with Compounds Ia and Id” value (SP-induced scratching [2]; guinea pigs) is reported as “Comparable results”.

With `CN(CCc1cc(C(F)(F)F)cc(C(F)(F)F)c1)C(=O)[C@H](c1ccccc1)N1CCC(N(C)CCCO)CC1` [Ic, (S)-N-[2-(3,5-Bis-trifluormethyl-phenyl)-ethyl]-2-{4-[(3-hydroxy-propyl)-methyl-amino]-piperidin-1-yl}-N-methyl-2-phenyl-acetamide] the “effect on SP-induced scratching compared with Compounds Ia and Ib” value (SP-induced scratching [1]) was “Comparable results” and the “effect on SP-induced scratching compared with Compounds Ia and Id” value (SP-induced scratching [2]; guinea pigs) was “Comparable results”.
